Values quoted from earlier work, collected in patent publication US20230035823A1, “ANTIHISTAMINE AND ANTI-MICROBIAL NASAL SOLUTIONS AND RELATED METHODS” (Xlear, Inc., priority 2021, published 2023).

How the values were obtained:
[1] = in vivo
[2] = regular consumption
Streptococcus pneumonia = details: in vitro, during logarithmic growth phase

OC[C@@H](O)[C@H](O)[C@@H](O)CO [Xylitol, xylitol]
moisturizing nasal passages [1]: very effective
incidence of dental caries [2]: reduce the incidence of dental caries
growth of Streptococcus pneumonia (Streptococcus pneumonia): inhibit the growth
